Measured values as given in patent publication US10882871B2, “18/19F-labelled compounds which target the prostate specific membrane antigen” (BRITISH COLUMBIA CANCER AGENCY BRANCH, priority 2016, dated 2021).
Where “and” joins values, the source holds several entries; their conditions need not be identical. Equal values may be shown once.

Test system: tumors derived from LNCaP cells
Test: PET/CT imaging and biodistribution of F-18 labeled HTK-01069 and HTK-01070 in tumor-bearing mice
Assay type: in vivo, mouse (NODSCID 1L2RγKO male mice)
Protocol: LNCap cell line used in the tumor model was obtained commercially from ATTC (LNCaP clone FGC, CRL-1740). It was established from a metastatic site of left supraclavicular lymph node of human prostatic adenocarcinoma. Cells were cultured in PRMI 1640 (StemCell Technologies, Vancouver, BC) supplemented by 10% FBS, 100 U/mL penicillin and 100 μg/mL streptomycin at 37° C. in a humidified incubator containing 5% CO2. Cells grown to 80-90% confluence were then washed with sterile phosphate-buffered saline (1×PBS pH 7.4) and trypsinization. The collected cells number was counted with Hemacytometer (Hausser Scientific).
Tumor implantation: Imaging and biodistribution experiments were performed using NODSCID 1L2RγKO male mice. Three or four mice in each cage equipped with enrichments. The mice were maintained and the experiments were conducted in according to the guidelines established by Canadian Council on Animal Care and approved by Animal Ethics Committee of the University of British Columbia. Mice were housed under pathogen-free conditions and kept on twelve hours light and twelve hours dark cycle in the Animal Research Centre, British Columbia Cancer Research Centre, Vancouver, Canada.
Mice were anesthetized by inhalation with 2.5% isoflurane in 2.0 L/min of oxygen during cells implantation. Mice were implanted subcutaneously with 1×10^7 LNCaP cells behind left shoulder. Mice were imaged or used in biodistribution studies when the tumor grew up to reach 5-8 mm in diameter during 5-6 weeks.
PET/CT Imaging: PET imaging experiments were conducted using Siemens inveon micro PET/CT scanner. Each tumor bearing mouse was injected ˜6.44 MBq of F-18 labeled HTK-01069 and ˜7.08 MBq of F-18 labeled HTK-01070 through the tail vein under anesthesia. After one hour, the mice were sedated again with 2% isoflurane inhalation and positioned in the scanner. Static PET imaging was performed to determined activity uptake of tumor and other organs. A CT scan was obtained for localization and attenuation correction after segmentation for reconstructing the PET images. The data was acquired by scanning the mice for 10 minutes each. The mice were kept warm by a heating pad during acquisition. The mice were euthanized after imaging and followed by biodistribution. Please see FIGS. 2 and 3 of this specification for reconstructed PET images for 1L2RγKO mice injected with HTK-01069 and HTK-01070 respectively.
Blood was withdrawn immediately, and the organs of interest were quickly removed. Each organ was weighed and the tissue radioactivity was measured with a Cobra II gamma counter (Packard), normalized to the injected dose using a standard curve and expressed as the percentage of the injected dose per gram of tissue (% ID/g). Biodistribution data are shown for HTK-01069 in Tables 5, 6 and 7 and HTK-01070 in Tables 8, 9, 10 of the specification respectively.

[1] = 1 h p.i. with co-injection of 0.5 mg DCFPyL, Avg
[2] = 1 h p.i. with co-injection of 0.5 mg DCFPyL, single mice

## C[N+](C)(Cc1ccc(C(=O)NCCCC[C@H](NC(=O)N[C@@H](CCC(=O)O)C(=O)O)C(=O)O)cc1)C[B-](F)(F)[18F] [F-18 HTK-01069]
[1]
  Biodistribution Adrenals: 0.35 % ID/g
  Biodistribution Blood: 0.45 % ID/g
  Biodistribution Bone: 0.13 % ID/g
  Biodistribution Brain: 0.03 % ID/g
  Biodistribution Fat: 0.11 % ID/g
  Biodistribution Heart: 0.25 % ID/g
  Biodistribution Intestine: 0.57 % ID/g
  Biodistribution Kidney: 3.54 % ID/g
  Biodistribution Liver: 0.11 % ID/g
  Biodistribution Lung: 0.15 % ID/g
  Biodistribution Muscle: 0.30 % ID/g
  Biodistribution Pancreas: 3.00 % ID/g
  Biodistribution Seminal: 0.38 % ID/g
  Biodistribution Spleen: 0.11 % ID/g
  Biodistribution Stomach: 0.13 % ID/g
  Biodistribution Tail: 0.44 % ID/g
  Biodistribution Testes: 0.10 % ID/g
  Biodistribution Tumour: 0.33 % ID/g
[2]
  Biodistribution Bone: 0.15 % ID/g and 0.17 % ID/g and 0.11 % ID/g and 0.10 % ID/g
  Biodistribution Brain: 0.02 % ID/g and 0.03 % ID/g and 0.04 % ID/g
  Biodistribution Heart: 0.17 % ID/g and 0.31 % ID/g and 0.27 % ID/g and 0.26 % ID/g
  Biodistribution Kidney: 2.35 % ID/g and 3.57 % ID/g and 4.08 % ID/g and 4.15 % ID/g
  Biodistribution Lung: 0.10 % ID/g and 0.20 % ID/g and 0.16 % ID/g and 0.13 % ID/g
  Biodistribution Muscle: 0.22 % ID/g and 0.36 % ID/g and 0.37 % ID/g and 0.26 % ID/g
  Biodistribution Pancreas: 2.40 % ID/g and 3.36 % ID/g and 2.71 % ID/g and 3.53 % ID/g
  Biodistribution Stomach: 0.08 % ID/g and 0.13 % ID/g and 0.15 % ID/g
  Biodistribution Tail: 0.43 % ID/g and 0.41 % ID/g and 0.37 % ID/g and 0.55 % ID/g
  Biodistribution Testes: 0.07 % ID/g and 0.13 % ID/g and 0.12 % ID/g and 0.09 % ID/g
  Biodistribution Tumour: 0.30 % ID/g and 0.35 % ID/g and 0.26 % ID/g and 0.42 % ID/g
1 h p.i., Avg
  Biodistribution Adrenals: 3.98 % ID/g
  Biodistribution Blood: 0.52 % ID/g
  Biodistribution Bone: 0.27 % ID/g
  Biodistribution Brain: 0.03 % ID/g
  Biodistribution Fat: 1.09 % ID/g
  Biodistribution Heart: 1.16 % ID/g
  Biodistribution Intestine: 0.55 % ID/g
  Biodistribution Kidney: 92.90 % ID/g
  Biodistribution Liver: 0.14 % ID/g
  Biodistribution Lung: 0.26 % ID/g
  Biodistribution Muscle: 0.36 % ID/g
  Biodistribution Pancreas: 2.77 % ID/g
  Biodistribution Seminal: 2.82 % ID/g
  Biodistribution Spleen: 0.48 % ID/g
  Biodistribution Stomach: 2.99 % ID/g
  Biodistribution Tail: 0.62 % ID/g
  Biodistribution Testes: 0.53 % ID/g
  Biodistribution Tumour: 5.58 % ID/g
1 h p.i., single mice
  Biodistribution Brain: 0.03 % ID/g
  Biodistribution Fat: 0.95 % ID/g and 1.21 % ID/g and 0.74 % ID/g and 1.46 % ID/g
  Biodistribution Intestine: 0.43 % ID/g and 0.59 % ID/g and 0.54 % ID/g and 0.64 % ID/g
  Biodistribution Lung: 0.21 % ID/g and 0.28 % ID/g and 0.22 % ID/g and 0.32 % ID/g
  Biodistribution Muscle: 0.36 % ID/g and 0.39 % ID/g and 0.34 % ID/g and 0.35 % ID/g
  Biodistribution Pancreas: 2.32 % ID/g and 2.86 % ID/g and 2.76 % ID/g and 3.17 % ID/g
  Biodistribution Tail: 0.70 % ID/g and 0.47 % ID/g and 0.57 % ID/g and 0.74 % ID/g
  Biodistribution Testes: 0.44 % ID/g and 0.58 % ID/g and 0.51 % ID/g and 0.60 % ID/g
  Biodistribution Tumour: 7.84 % ID/g and 4.16 % ID/g and 4.47 % ID/g and 5.86 % ID/g
2 h p.i., Avg
  Biodistribution Adrenals: 2.01 % ID/g
  Biodistribution Blood: 0.16 % ID/g
  Biodistribution Bone: 0.12 % ID/g
  Biodistribution Brain: 0.03 % ID/g
  Biodistribution Fat: 0.43 % ID/g
  Biodistribution Heart: 0.72 % ID/g
  Biodistribution Intestine: 0.75 % ID/g
  Biodistribution Kidney: 51.79 % ID/g
  Biodistribution Liver: 0.06 % ID/g
  Biodistribution Lung: 0.12 % ID/g
  Biodistribution Muscle: 0.24 % ID/g
  Biodistribution Pancreas: 2.24 % ID/g
  Biodistribution Seminal: 3.24 % ID/g
  Biodistribution Spleen: 0.26 % ID/g
  Biodistribution Stomach: 2.25 % ID/g
  Biodistribution Tail: 0.31 % ID/g
  Biodistribution Testes: 0.39 % ID/g
  Biodistribution Tumour: 5.36 % ID/g
2 h p.i., single mice
  Biodistribution Bone: 0.12 % ID/g and 0.08 % ID/g and 0.14 % ID/g and 0.13 % ID/g
  Biodistribution Brain: 0.04 % ID/g and 0.02 % ID/g and 0.03 % ID/g
  Biodistribution Heart: 0.63 % ID/g and 0.61 % ID/g and 0.79 % ID/g and 0.84 % ID/g
  Biodistribution Intestine: 0.78 % ID/g and 0.92 % ID/g and 0.63 % ID/g and 0.68 % ID/g
  Biodistribution Kidney: 62.04 % ID/g and 35.60 % ID/g and 49.89 % ID/g and 59.65 % ID/g
  Biodistribution Lung: 0.16 % ID/g and 0.09 % ID/g and 0.11 % ID/g and 0.14 % ID/g
  Biodistribution Muscle: 0.29 % ID/g and 0.18 % ID/g and 0.22 % ID/g and 0.28 % ID/g
  Biodistribution Pancreas: 2.39 % ID/g and 1.89 % ID/g and 2.21 % ID/g and 2.48 % ID/g
  Biodistribution Spleen: 0.31 % ID/g and 0.18 % ID/g and 0.21 % ID/g and 0.33 % ID/g
  Biodistribution Tail: 0.29 % ID/g and 0.24 % ID/g and 0.36 % ID/g and 0.34 % ID/g
  Biodistribution Testes: 0.41 % ID/g and 0.37 % ID/g and 0.39 % ID/g
  Biodistribution Tumour: 5.03 % ID/g and 4.25 % ID/g and 5.74 % ID/g and 6.41 % ID/g
